In publication PMC8138313, “Identification, Selection and Immune Assessment of Liver Stage CD8 T Cell Epitopes From Plasmodium falciparum” (Frontiers in Immunology, 2021):
Where a SMILES comes first, the peptide text is derived from it.

Key:
Test in all cases: HLA class I binding assay (cell-free competition, fluorescence polarization)
HLA A*0201 = HLA A*0201 (Homo sapiens, UniProt P04439, D140Y/D185E/D98H/E176V/E277Q/G131W/G231S/I119V/I121R/I166T/I218V/L300P/L318F/N151K/N90K/P208A/P217A/Q86G/Q94H/R138H/R169H/T345S)
HLA A*2402 = HLA A*2402 (Homo sapiens, UniProt P04439, D101N/D140Y/D185E/E176V/E190D/F33S/G103R/G107R/I119L/I121M/I306V/K335N/L105A/L180Q/L300P/N151K/N90K/Q86E/Q94H/R106L/R138H/R89G/T104I/T345S/V100E/W191G/Y123F)
HLA B*4402 = HLA B*4402 (Homo sapiens, UniProt P01889, A223V/A65T/A93T/A95T/D201E/D98Y/E176V/E187L/E204Q/E69K/G107R/H137Y/K202T/L105A/L119I/N104T/N87E/Q56L/Q94N/R106L/R155S/R180D/S101N/S121R/S35A/S48T/T118I/V36M/W191S/Y140D/Y91S)

Work on `CC[C@H](C)[C@H](NC(=O)[C@@H]1CCCN1C(=O)[C@H](Cc1ccc(O)cc1)NC(=O)[C@H](CCC(N)=O)NC(=O)[C@H](CC(=O)O)NC(=O)[C@H](CO)NC(=O)[C@H](CCCCN)NC(=O)[C@H](CCSC)NC(=O)[C@@H](N)CCCCN)C(=O)O` (H-KMKSDQYPI-OH) yielded an IC50 (HLA A*0201) of 3.07 µM and an IC50 (HLA A*2402) of 6.9 µM.

In the case of `C[C@@H](O)[C@H](NC(=O)[C@H](CC(N)=O)NC(=O)[C@H](Cc1ccc(O)cc1)NC(=O)[C@@H](NC(=O)[C@H](CO)NC(=O)[C@@H](NC(=O)[C@H](CO)NC(=O)[C@H](CCC(=O)O)NC(=O)[C@@H](N)CO)[C@@H](C)O)[C@@H](C)O)C(=O)O` (H-SESTSTYNT-OH), the IC50 (HLA B*4402) is reported as 103 µM.

For `CC[C@H](C)[C@H](NC(=O)[C@H](CC(C)C)NC(=O)[C@H](CC(=O)O)NC(=O)[C@H](CC(N)=O)NC(=O)[C@H](CCCNC(=N)N)NC(=O)[C@H](CO)NC(=O)[C@@H](NC(=O)[C@H](CCC(=O)O)NC(=O)[C@H](C)N)[C@@H](C)CC)C(=O)O` (H-AEISRNDLI-OH), the IC50 (HLA B*4402) was 4.53 µM.

`CC[C@H](C)[C@H](NC(=O)[C@H](CCC(=O)O)NC(=O)[C@H](CC(N)=O)NC(=O)[C@H](CC(C)C)NC(=O)[C@H](CC(C)C)NC(=O)[C@@H]1CCCN1C(=O)[C@@H]1CCCN1C(=O)[C@H](CC(C)C)NC(=O)[C@@H](N)CCCCN)C(=O)O` (H-KLPPLLNEI-OH) was tested, and the IC50 (HLA A*0201) was 2.66 µM and the IC50 (HLA A*2402) was 0.0887 µM.

In the case of `CC[C@H](C)[C@H](NC(=O)[C@@H](NC(=O)[C@@H]1CCCN1C(=O)[C@H](Cc1ccc(O)cc1)NC(=O)[C@@H](N)Cc1ccc(O)cc1)[C@@H](C)CC)C(=O)N[C@@H](CCCNC(=N)N)C(=O)N[C@@H](CCCCN)C(=O)N[C@@H](CCC(N)=O)C(=O)N[C@@H](Cc1ccccc1)C(=O)O` (H-YYPIIRKQF-OH), the IC50 (HLA A*2402) is reported as 0.101 µM.

With `CC[C@H](C)[C@H](NC(=O)[C@H](Cc1ccc(O)cc1)NC(=O)[C@@H]1CCCN1C(=O)[C@@H]1CCCN1C(=O)[C@H](CC(C)C)NC(=O)CNC(=O)[C@@H](NC(=O)[C@@H](NC(=O)[C@@H](N)Cc1ccc(O)cc1)[C@@H](C)O)[C@@H](C)CC)C(=O)O` (H-YTIGLPPYI-OH) the IC50 (HLA A*0201) was 2.46 µM and the IC50 (HLA A*2402) was 6.57 µM.

In the case of `CC[C@H](C)[C@H](NC(=O)[C@H](CC(N)=O)NC(=O)[C@H](Cc1ccc(O)cc1)NC(=O)[C@H](CCC(N)=O)NC(=O)[C@H](CC(=O)O)NC(=O)[C@H](CC(N)=O)NC(=O)[C@H](CC(N)=O)NC(=O)[C@H](Cc1ccc(O)cc1)NC(=O)[C@@H](N)CC(N)=O)C(=O)O` (H-NYNNDQYNI-OH), the IC50 (HLA A*2402) is reported as 6.54 µM.

`CC[C@H](C)[C@H](NC(=O)[C@H](CO)NC(=O)[C@H](Cc1ccc(O)cc1)NC(=O)[C@@H](N)[C@@H](C)O)C(=O)N[C@@H](Cc1ccc(O)cc1)C(=O)N[C@H](C(=O)N[C@@H](CC(N)=O)C(=O)N[C@@H](Cc1ccccc1)C(=O)N[C@@H](CCCCN)C(=O)N[C@@H](CC(N)=O)C(=O)O)[C@@H](C)O` (H-TYSIYTNFKN-OH) was tested, and the IC50 (HLA A*2402) was 26.6 µM.

`CC(C)C[C@H](N)C(=O)N[C@@H](Cc1ccccc1)C(=O)NCC(=O)N[C@@H](CC(=O)O)C(=O)N[C@@H](CCC(=O)O)C(=O)N[C@@H](CC(N)=O)C(=O)N[C@@H](Cc1ccccc1)C(=O)N[C@@H](CO)C(=O)N[C@@H](Cc1ccccc1)C(=O)O` (H-LFGDENFSF-OH) showed an IC50 (HLA A*2402) of 5.87 µM.

With `CSCC[C@H](N)C(=O)N[C@@H](Cc1ccc(O)cc1)C(=O)N[C@@H](Cc1c[nH]cn1)C(=O)N[C@@H](CC(N)=O)C(=O)N[C@@H](CCCCN)C(=O)N[C@@H](CCC(=O)O)C(=O)N[C@@H](Cc1ccccc1)C(=O)N[C@@H](CC(=O)O)C(=O)N[C@@H](Cc1ccccc1)C(=O)O` (H-MYHNKEFDF-OH) the IC50 (HLA A*2402) was 4.51 µM.

With `CC[C@H](C)[C@H](N)C(=O)N[C@@H](Cc1c[nH]c2ccccc12)C(=O)N[C@@H](Cc1ccc(O)cc1)C(=O)N[C@@H](CCCCN)C(=O)N[C@@H](Cc1ccc(O)cc1)C(=O)N[C@H](C(=O)N[C@@H](CCC(=O)O)C(=O)N[C@@H](CO)C(=O)N[C@@H](CC(=O)O)C(=O)N[C@@H](Cc1ccccc1)C(=O)O)[C@@H](C)O` (H-IWYKYTESDF-OH) the IC50 (HLA A*2402) was 1.12 µM.
